Reference: US20040170622A1, “Methods and compositions for modulating XBP-1 activity” (President and Fellows of Harvard College, priority 2002, published 2004)
“Also recorded” adds a separate entry of the source. Where a SMILES comes first, the peptide text is derived from it. The star is where a group is joined. Cbz = O=C(OCc1ccccc1)*

B1: XBP-1s: vector encoding only the spliced form of murine XBP-1, a protein of 371 aa (protein)
chain: MVVVAAAPSAATAAPKVLLLSGQPASGGRALPLMVPGPRAAGSEASGTPQARKRQRLTHLSPEEKALRRKLKNRVAAQTARDRKKARMSELEQQVVDLEEENHKLQLENQLLREKTHGLVVENQELRTRLGMDTLDPDEVPEVEAKGSGVRLVAGSAESAAGAGPVVTSPEHLPMDSDTVASSDSESDILLGILDKLDPVMFFKCPSPESASLEELPEVYPEGPSSLPASLSLSVGTSSAKLEAINELIRFDHVYTKPLVLEIPSETESQTNVVVKIEEAPLSSSEEDHPEFIVSVKKEPLEDDFIPELGISNLLSSSHCLRPPSCLLDAHSDCGYEGSPSPFSDMSSPLGTDHSWEDTFANELFPQLISV

Tests used:
Type in all cases: cell-based
PERK = PERK autophosphorylation in J558 cells
BiP and CHOP = test: UPR target gene expression in NIH3T3 and J558 myeloma cells (Northern blot); conditions: for induction of UPR target genes (BiP, CHOP), agent alone: MG-132 20 μM, Tm 10 μg/ml
Description: (A) BiP and CHOP induction was examined by northern blot analysis after treating NIH3T3 or J558 myeloma cells with either MG-132 (20 μM), Tm (10 μg/ml) or both. Cells were pretreated with MG-132 for 1 hr and then further treated with Tm for 4 hrs. Ethidium bromide staining of the gel is shown at the bottom. (B) Inhibition of caspase-12 processing by proteasome inhibitors. Processing of full-length caspase-12 was examined by Western blotting in J558 myeloma cells treated with thapsigargin (1 μM) or PIs (20 μM) during the indicated time periods. (C) Alteration in the ratio of XBP-1 protein species in J558 cells were treated with increasing amounts of MG-132 for 16 hrs. Cells undergoing apoptosis were counted by Annexin V staining. (D) Time course of the XBP-1s to XBP-1u shift. Cells were treated with MG-132 (1 μM) for the indicated times and XBP-1u and spliced protein levels and cell death determined. (E) Alteration in the ratio of XBP-1 species in the MM.1s human myeloma line. Cells were treated with PS-341 (8 nM) in a time course analysis and XBP-1 protein species quantified.
Total RNA was prepared by using Trizol reagent, electrophoresed on 1.2% agarose, 6% formaldehyde gels and then transferred onto Genescreen Plus membrane, (NEN, Boston, Mass.). […] Probes for ERdj4 and p58^IPK were generated from cDNA excised from EST clones (ATCC, Manassas, Va.) using appropriate restriction enzymes (ERdj4, IMAGE: 1920927; p58^IPK, IMAGE:2646147).
The maturation and folding of ER membrane and secretory proteins relies on the activity of ER-resident chaperones and folding enzymes. ER proteins that ultimately fail to fold properly are degraded by the 26S proteasome, or ERAD. […] To test the effect of proteasome dysfunction on UPR activation, NIH3T3 fibroblasts (left panel) and J558 myeloma cells (right panel) were treated with the proteasome inhibitor (PI) MG-132 in the presence or absence of the ER stress inducer, tunicamycin (Tm), and the expression of UPR target genes assessed (FIG. 10a).

ERdj4 promoter = test: ERdj4GL3 promoter luciferase reporter in MEF cells; conditions: wt MEF, Tm 1 μg/ml 16 hours or cotransfected XBP-1s
Description: (A) Wild type and XBP-1^−/− MEF cells were treated with 10 μg/ml Tm for the indicated time periods. Total RNAs were isolated and subjected to Northern blot analysis. The same blot was hybridized sequentially with BiP, CHOP, ERdj4, p58^ipk, ATF6α and Gla probes. The p58^ipk probe is probe A, from the 5′ end of the gene. Ethidium bromide staining of the gel before blotting is shown at the bottom for loading control. (B) All isoforms of p58^ipk are XBP-1 dependent. Here, Northern blot analysis was performed with probe B which recognizes sequences at the 3′ end of the gene. (C) XBP-1-dependent genes are also IRE1α-dependent. Northern blot analysis of RNA prepared from IRE 1α^−/− MEFs treated with Tm for varying time periods and assessed for expression of ERdj4 and p58^ipk. (D) The ERdj4GL3 reporter was transfected with or without XBP-1s plasmid into wild type and XBP-1^−/− MEF cells. Cells were treated with Tm at 1 μg/ml for 16 hours before harvesting as indicated. Luciferase activity was normalized to the Renilla activity. (E) Induction of BiP, ERdj4 and p58^ipk in primary B cells by LPS. B220+ primary B cells were isolated from spleens of wildtype or XBP-1^−/− RAG2^−/− lymphoid chimeras. Cells were untreated or stimulated for three days with 20 μg/ml LPS. Expression of BiP, ERdj4 and p58^ipk was determined by Northern blot analysis […]

| Molecule | effect on Tm-induced autophosphorylation of PERK (PERK) | induction of UPR target genes (BiP, CHOP), agent alone (BiP and CHOP) | effect on Tm-induced stress response (BiP and CHOP; MG-132 pretreatment 1 hr, then Tm 4 hrs, NIH3T3 and J558) | amount of phosphorylated PERK (PERK) | ERdj4 promoter luciferase reporter induction (ERdj4 promoter) |
| --- | --- | --- | --- | --- | --- |
| CC(C)C[C@@H](C=O)NC(=O)[C@H](CC(C)C)NC(=O)[C@H](CC(C)C)NC(=O)OCc1ccccc1 [MG-132] (Cbz-Leu-Leu-Leu-aldehyde) | a decrease in the autophosphorylation of PERK; also recorded: very marked decrease in the autophosphorylation of PERK | also induced the UPR | blocked rather than further augmented the Tm-induced stress response |  |  |
| tunicamycin [Tm] |  | induction of expression of representative UPR target genes such as BiP (Grp78) and CHOP |  | led to an increase in the amount of phosphorylated PERK | induced by Tm as well as by cotransfected XBP-1s |
| B1 |  |  |  |  | induced by Tm as well as by cotransfected XBP-1s |
